Experimental data: US10954305B2 (Immunomedics, Inc., priority 2016, dated 2021)

Experiments:
subline of H23 = conditions: Bessho et al., 2006; cited from earlier work
sublines of HeLa = conditions: Takara et al., 2009; cited from earlier work
sublines of PC-6 = conditions: Kawabata et al., 2001; cited from earlier work
MDA-MB-231 [1] = assay: in vitro cytotoxicity, MTS (Table 14); format: cell-based, human; conditions: YHO-13351 2 μM where added
Protocol: (§1) Each cell line was maintained according to the recommendations of ATCC and routinely tested for mycoplasma using MYCOALERT™ mycoplasma detection kits (Lonza). The two SN-38-resistant cell lines, MDA-MB-231-5120 and NCI-N87-S120, were established by continuous exposure of the parental cells to stepwise increased concentrations of SN-38 from 6 pM to 120 nM over a period of approximately 2 years. In addition, a revertant cell line (NCI-N87-S120-REV) was obtained after culturing NCI-N87-S120 in SN-38-free medium for 4 months. The S-120 clones were maintained in medium containing 120 nM of SN-38, but cultured in drug-free medium for 7 to 14 days prior to any experiment. All cells were grown at 37° C. as monolayer cultures in a humidified atmosphere of 5% CO2.
(§2) In Vitro cytotoxicity. […] Briefly, cells were placed into wells of 96-well plates. […] From these working solutions, serial 5-fold dilutions were made in sterile media to yield final concentrations between 500 and 0.0064 nM in test wells. […] Cytotoxicity was measured as a percent of growth relative to untreated cells. Dose-response curves were generated from the mean of triplicate determinations, and IC50 values were calculated using GraphPad Prism Software V 6.05 (Advanced Graphics Software).
(§3) The effect of ABCG2 inhibitors on the IC50 values of SN-38 for the parental and resistant cell lines was determined from the respective dose-response curves obtained for SN-38 in the presence of a non-toxic concentration of ABCG2 inhibitors.

MDA-MB-231-S120 = assay: in vitro cytotoxicity, MTS (Table 14); format: cell-based, human; conditions: for IC50: MDA-MB-231-S120, YHO-13351 2 μM where added; for RF (resistance factor): IC50 mean of MDA-MB-231-S120 / MDA-MB-231
Protocol: as §1, §2, §3

NCI-N87-S120 = assay: in vitro cytotoxicity, MTS (Table 14); format: cell-based, human; conditions: for IC50: NCI-N87-S120, YHO-13351 2 μM, Ko143 1 μM where added; for RF (resistance factor): IC50 mean of NCI-N87-S120 / NCI-N87
Protocol: as §1, §2, §3

NCI-N87 [2] = assay: in vitro cytotoxicity, MTS (Table 14); format: cell-based; conditions: Homo sapiens, YHO-13351 2 μM, Ko143 1 μM where added
Protocol: as §1
In Vitro cytotoxicity. […] Briefly, cells were placed into wells of 96-well plates. […] Cytotoxicity was measured as a percent of growth relative to untreated cells. Dose-response curves were generated from the mean of triplicate determinations, and IC50 values were calculated using GraphPad Prism Software V 6.05 (Advanced Graphics Software).
as §3

[3] = Weidner et al., 2015; cited from earlier work
[4] = tested on: p21^WAF1/Cip1 in MDA-MB-468; assay: immunoblotting of apoptotic pathway; format: cell-based, human; conditions: by 48 h
Protocol: Cells (2×10^6) were plated in 6-well plates overnight. […] Parental hRS7 was used as a control for the ADC.

MDA-MB-231 [5] = assay: double-strand breaks, γH2AX; format: cell-based, human; conditions: 250 nM, after 3 h
Protocol: (§4) Cells (5×10^5 cells/mL per sample) were incubated with or without SN-38 (250 nM) at 37° C. for the indicated times, fixed in 4% formalin for 15 min, then washed and permeabilized in 0.15% TRITON™ X-100 in PBS for 15 min. After washing twice with 1% bovine serum albumin-PBS, the cells were incubated with murine anti-γH2AX-AF488 for 45 min at 4° C. The signal intensity of γH2AX was measured by flow cytometry using a FACSCALIBUR™ (BD Biosciences).

NCI-N87 [6] = assay: double-strand breaks, γH2AX; format: cell-based, human; conditions: 250 nM, after 3 h
Protocol: as §4

p21^Waf1/Cip1 in BxPC-3 = assay: p21Waf1/Cip1 expression; format: cell-based, human
Description: SN-38 is known to activate several signaling pathways in cells, leading to apoptosis (e.g., Cusack et al., 2001, Cancer Res 61:3535-40; Liu et al. 2009, Cancer Lett 274:47-53; Lagadec et al., 2008, Br J Cancer 98:335-44). Our initial studies examined the expression of 2 proteins involved in early signaling events (p21^Waf1/Cip1 and p53) and 1 late apoptotic event [cleavage of poly-ADP-ribose polymerase (PARP)] in vitro (not shown).

NCI-N87-S120-REV = assay: in vitro cytotoxicity, MTS; format: cell-based, human; conditions: revertant after 4 months in SN-38-free medium
Protocol: as §1, §2

p53 in BxPC-3 and Calu-3 = assay: p53 expression; format: cell-based, human
Protocol: In addition, p53 expression in cells exposed to the ADC was higher in both cell lines compared to SN-38 (not shown). […] In terms of later apoptotic events, cleavage of PARP was evident in both cell lines when incubated with either SN-38 or the conjugate (not shown). […] The higher degree of cleavage with free SN-38 over the ADC was consistent with the cytotoxicity findings.

COc1cccc2c1C(=O)c1c(O)c3c(c(O)c1C2=O)C[C@@](O)(C(=O)CO)C[C@@H]3O[C@H]1C[C@H](N)[C@H](O)[C@H](C)O1 [Doxorubicin]
resistance ratio (subline of H23): about 7.0 | resistance ratio (sublines of HeLa): 2.5 | resistance ratio (sublines of PC-6): less than 1.3 | IC50 (MDA-MB-231 [1]; Homo sapiens): 0.0109 ± 0.0006 µM | IC50 (MDA-MB-231-S120; Homo sapiens): 0.0431 ± 0.0046 µM | RF (resistance factor) (MDA-MB-231-S120): 4.0 | IC50 (NCI-N87-S120; Homo sapiens): 0.0746 ± 0.0033 µM | RF (resistance factor) (NCI-N87-S120): 2.3 | IC50 (NCI-N87 [2]): 0.0322 ± 0.0075 µM

COc1ccc2c3c([nH]c2c1)[C@H](CC(C)C)N1C(=O)[C@H](CCC(=O)OC(C)(C)C)NC(=O)[C@@H]1C3 [Ko143]
stability in rat serum [3]: instability | effect on SN-38 toxicity in S-120 cells (NCI-N87-S120; both S-120 cells, in vitro): restored toxicity of SN-38

CCc1c2c(nc3ccc(O)cc13)-c1cc3c(c(=O)n1C2)COC(=O)[C@]3(O)CC [SN-38, 7-ethyl-10-hydroxycamptothecin]
decrease of p21^WAF1/Cip1 [4]: 31% | increase of γH2AX over untreated controls (MDA-MB-231 [5]): about 2 fold | increase of γH2AX over untreated controls (NCI-N87 [6]): about 4 fold | increase in p21^Waf1/Cip1 expression (p21^Waf1/Cip1 in BxPC-3): 20 fold | IC50 (MDA-MB-231 [1]): 0.0048 ± 0.0017 µM | RF (resistance factor) (MDA-MB-231-S120): 51.7 | IC50 (MDA-MB-231-S120): 0.248 ± 0.079 µM | RF (resistance factor) (NCI-N87-S120): 49.1 | IC50 (NCI-N87-S120): 0.211 ± 0.039 µM | resistance of S-120 cells vs parental cells (NCI-N87-S120; both S-120 cells): about 50 fold | IC50 (NCI-N87-S120-REV): 0.05 µM | time to upregulation of p53 (p53 in BxPC-3 and Calu-3): 48 h
